Measured values as given in patent US6703347B2, “Isothiazole derivatives and their use as pesticides” (Syngenta Limited, priority 2000, dated 2004).

How the values were obtained:
[1] = system: peach potato aphids (Myzus persicae); assay: whole plant or invertebrate; conditions: 72 h, read-out: mortality (score) Mp
Procedure: (§1) This Example illustrates the pesticidal/insecticidal properties of compounds of formula (I). The activities of individual compounds of formula (I) were determined using a variety of pests. The pests were treated with a liquid composition containing 500 parts per million (ppm) by weight of a compound of formula (I). Each composition was made by dissolving the compound in an acetone and ethanol (50:50 by volume) mixture and diluting the solution with water containing 0.05% by volume of a wetting agent, SYNPERONIC NP8, until the liquid composition contained the required concentration of the compound.
(§2) The test procedure adopted with regard to each pest was essentially the same and comprised supporting a number of the pests on a medium, which was usually a substrate, a host plant or a foodstuff on which the pests feed, and treating either or both the medium and the pests with a composition. Pest mortality was assessed usually between two and five days after treatment.
(§3) In each test against peach potato aphids (Myzus persicae), Chinese cabbage leaves were infested with aphids, the infested leaves were sprayed with a test composition and pest mortality was assessed after three days.

[2] = system: fruit flies (Drosophila melanogaster); assay: pesticidal test against fruit flies; conditions: liquid composition containing 500 ppm by weight of compound
[3] = system: corn root worm (Diabrotica balteata); assay: pesticidal test against corn root worm; conditions: liquid composition containing 500 ppm by weight of compound
Procedure: (§4) The activities of individual compounds of formula (I) were determined using a variety of pests. The pests were treated with a liquid composition containing 500 parts per million (ppm) by weight of a compound of formula (I). Each composition was made by dissolving the compound in an acetone and ethanol (50:50 by volume) mixture and diluting the solution with water containing 0.05% by volume of a wetting agent, SYNPERONIC NP8, until the liquid composition contained the required concentration of the compound.
as §2
(§5) Similar tests were conducted against, independently, two-spotted spider mites (Tetranychus urticae), fruit flies (Drosophila melanogaster), tobacco budworms (Heliothis virescens), diamond back moth (Plutella xylostella) and corn root worm (Diabrotica balteata).

[4] = system: tobacco budworms (Heliothis virescens); assay: pesticidal test against tobacco budworms; conditions: liquid composition containing 500 ppm by weight of compound
Procedure: as §4, §2, §5

[5] = system: diamond back moth (Plutella xylostella); assay: pesticidal test against diamond back moth; conditions: liquid composition containing 500 ppm by weight of compound
Procedure: as §4, §2, §5

[6] = system: peach potato aphids (Myzus persicae); conditions: 500 ppm by weight; infested Chinese cabbage leaves sprayed; mortality assessed after three days
Procedure: as §1, §2, §3

[7] = system: two-spotted spider mites (Tetranychus urticae); conditions: liquid composition containing 500 ppm by weight of compound
Procedure: as §4, §2, §5

[8] = system: Blumeria graminis f.sp. tritici (ERYSGT); assay: foliar fungicide test on wheat (Example 19); format: in vivo; conditions: 100 ppm foliar (Prot) application on wheat; inoculated 6 hours or one day after application
[9] = system: Plasmopara viticola (PLASVI); assay: foliar fungicide test on vines (Example 19); format: in vivo; conditions: 100 ppm foliar (Prot) application on vines; inoculated 6 hours or one day after application

Compound | mortality at 500 ppm [1] [%] | mortality (score) Dm [2] | mortality (score) Db [3] | mortality (score) Hv [4] | mortality (score) Px [5] | mortality (score) Mp [6] | mortality (score) Tu [7] | ERYSGT Prot, PRCO (Percentage Reduction from Control) [8] | PLASVI Prot, PRCO (Percentage Reduction from Control) [9]
CCc1nsc(NC(=O)C(C)c2ccc3sc(CC(C)C)nc3c2)c1Cl (centres unmarked) [Table 39 Compound 86, N-(4-chloro-3-ethylisothiazol-5-yl)-2-[2-(2-methylpropyl)benzothiazol-5-yl]propionamide] | 40 to 79 | 0 (represents less than 40% mortality) | 9 (9 indicates 80-100% mortality) | 9 (9 indicates 80-100% mortality) | 9 (9 indicates 80-100% mortality) | – | – | – | –
Cc1nsc(NC(=O)C(C)(F)c2ccc3oc(CC(C)(C)C)nc3c2)c1Cl (centres unmarked) [Table 6 Compound 7, N-(4-chloro-3-methylisothiazol-5-yl)-2-[2-(2,2-dimethylpropyl)benzoxazol-5-yl]-2-fluoropropionamide] | 80 to 100 | 5 (5 indicates 40-79% mortality) | 9 (9 indicates 80-100% mortality) | 9 (9 indicates 80-100% mortality) | – | – | – | – | –
Cc1nsc(NC(=O)C(=O)c2ccc3oc(CC(C)(C)C)nc3c2)c1Cl [Table 10 Compound 7] | – | – | – | – | 9 (9 indicates 80-100% mortality) | 9 (9 indicates 80-100% mortality) | 0 (represents less than 40% mortality) | – | –
Cc1nsc(NC(=O)C(C)c2ccc3oc(CC(F)(F)F)nc3c2)c1Cl (centres unmarked) [Table 1 Compound 8, N-(4-chloro-3-methylisothiazol-5-yl)-2-[2-(2,2,2-trifluoroethyl)benzoxazol-5-yl]propionamide] | 40 to 79 | 0 (represents less than 40% mortality) | 9 (9 indicates 80-100% mortality) | 9 (9 indicates 80-100% mortality) | 9 (9 indicates 80-100% mortality) | – | – | – | –
Cc1nsc(NC(=O)C(O)c2ccc3oc(CC(C)(C)C)nc3c2)c1Cl (centres unmarked) [Table 7 Compound 7] | – | 9 (9 indicates 80-100% mortality) | – | – | 9 (9 indicates 80-100% mortality) | 0 (represents less than 40% mortality) | 9 (9 indicates 80-100% mortality) | – | –
CCOCN(C(=O)/C=C/c1ccc2oc(CC(C)(C)C)nc2c1)c1snc(C)c1Cl [Table 81 Compound 77] | – | 0 (represents less than 40% mortality) | 9 (9 indicates 80-100% mortality) | 0 (represents less than 40% mortality) | 0 (represents less than 40% mortality) | 0 (represents less than 40% mortality) | 0 (represents less than 40% mortality) | – | –
CCOC(=O)CNN=C(C(=O)Nc1snc(C)c1Cl)c1ccc2oc(CC(C)(C)C)nc2c1 [Table 30 Compound 7] | – | – | – | – | – | 9 (9 indicates 80-100% mortality) | – | 100 | –
CC(=O)OCC(C(=O)Nc1snc(C)c1Cl)c1ccc2oc(CC(C)(C)C)nc2c1 (centres unmarked) [Table 28 Compound 7] | – | 0 (represents less than 40% mortality) | 0 (represents less than 40% mortality) | 9 (9 indicates 80-100% mortality) | – | 5 (5 indicates 40-79% mortality) | – | 98 | 97
